Assay: cn = amount concentration of the nth substance listed, in mol/dm3
Details: 101.3 kPa, Liquid, Taylor dispersion method

For `OC[C@H]1O[C@@H]2O[C@H]3[C@H](O)[C@@H](O)[C@@H](O[C@H]4[C@H](O)[C@@H](O)[C@@H](O[C@H]5[C@H](O)[C@@H](O)[C@@H](O[C@H]6[C@H](O)[C@@H](O)[C@@H](O[C@H]7[C@H](O)[C@@H](O)[C@@H](O[C@H]1[C@H](O)[C@H]2O)O[C@@H]7CO)O[C@@H]6CO)O[C@@H]5CO)O[C@@H]4CO)O[C@@H]3CO` [α-cyclodextrin] + O, the binary diffusion coefficient (298.15 K, c1 = 0.002) was 3.52e-10 m2/s, the binary diffusion coefficient (298.15 K, c1 = 0.004) was 3.5e-10 m2/s and the binary diffusion coefficient (298.15 K, c1 = 0.006) was 3.49e-10 m2/s. It also gave a binary diffusion coefficient (298.15 K, c1 = 0.008) of 3.47e-10 m2/s, a binary diffusion coefficient (298.15 K, c1 = 0.01) of 3.46e-10 m2/s and a binary diffusion coefficient (303.15 K, c1 = 0.002) of 4.07e-10 m2/s. For the same molecule, the binary diffusion coefficient (303.15 K, c1 = 0.004) was 4.04e-10 m2/s, the binary diffusion coefficient (303.15 K, c1 = 0.006) was 4.03e-10 m2/s and the binary diffusion coefficient (303.15 K, c1 = 0.008) was 4.01e-10 m2/s. It also gave a binary diffusion coefficient (303.15 K, c1 = 0.01) of 3.98e-10 m2/s, a binary diffusion coefficient (308.15 K, c1 = 0.002) of 4.38e-10 m2/s and a binary diffusion coefficient (308.15 K, c1 = 0.004) of 4.36e-10 m2/s. The binary diffusion coefficient (308.15 K, c1 = 0.006) was 4.35e-10 m2/s, the binary diffusion coefficient (308.15 K, c1 = 0.008) was 4.34e-10 m2/s and the binary diffusion coefficient (308.15 K, c1 = 0.01) was 4.31e-10 m2/s. The binary diffusion coefficient (312.15 K, c1 = 0.002) was 5.02e-10 m2/s, the binary diffusion coefficient (312.15 K, c1 = 0.004) was 4.98e-10 m2/s and the binary diffusion coefficient (312.15 K, c1 = 0.006) was 4.88e-10 m2/s. For the same molecule, the binary diffusion coefficient (312.15 K, c1 = 0.008) was 4.78e-10 m2/s and the binary diffusion coefficient (312.15 K, c1 = 0.01) was 4.72e-10 m2/s.

Source: the NIST ThermoML archive (doi:10.1021/je060474z)
